pIC50: −log10 of the molar value. The source made the active and inactive calls. The calls are words filed in the database; no cut-off is given here.

Our source for the IC50 and Activity values is ChEMBL document CHEMBL2311428, “Binding partners for curcumin in human schwannoma cells: biologic implications” (Bioorg Med Chem, 2013).

The nature of assay [1]: Cytotoxicity against human HEI-193 cells harboring NF2 mutant assessed as growth inhibition after 72 hrs by MTT assay. Particulars: HEI-193, 72 h. It is filed as functional, cell-based.
The nature of assay [2]: Downregulation of Hsp27 expression in human keratinocytes at 10 uM. Format: functional, cell-based. To be noted: Keratinocyte.
The subject of a further assay is HEI-193. Description: Binding affinity to Hsp70 in human HEI-193 cells harboring NF2 mutant at 100 uM after 30 mins by SDS-PAGE analysis. Format: cell-based.
Assay [3] concerns the target Heat shock protein HSP90 (Homo sapiens) (UniProt P07900+P08238). Put plainly: Binding affinity to Hsp90 in human HEI-193 cells harboring NF2 mutant at 100 uM after 30 mins by SDS-PAGE analysis. Format: cell-based.
For assay [4], the target named is Actin, cytoplasmic 1 (Homo sapiens) (UniProt P60709). Put plainly: Binding affinity to beta-actin in human HEI-193 cells harboring NF2 mutant at 100 uM after 30 mins by SDS-PAGE analysis. Format: cell-based.
For assay [5], the target named is T1, D-3-phosphoglycerate dehydrogenase (Homo sapiens) (UniProt O43175).
T1 sequence (whole entry): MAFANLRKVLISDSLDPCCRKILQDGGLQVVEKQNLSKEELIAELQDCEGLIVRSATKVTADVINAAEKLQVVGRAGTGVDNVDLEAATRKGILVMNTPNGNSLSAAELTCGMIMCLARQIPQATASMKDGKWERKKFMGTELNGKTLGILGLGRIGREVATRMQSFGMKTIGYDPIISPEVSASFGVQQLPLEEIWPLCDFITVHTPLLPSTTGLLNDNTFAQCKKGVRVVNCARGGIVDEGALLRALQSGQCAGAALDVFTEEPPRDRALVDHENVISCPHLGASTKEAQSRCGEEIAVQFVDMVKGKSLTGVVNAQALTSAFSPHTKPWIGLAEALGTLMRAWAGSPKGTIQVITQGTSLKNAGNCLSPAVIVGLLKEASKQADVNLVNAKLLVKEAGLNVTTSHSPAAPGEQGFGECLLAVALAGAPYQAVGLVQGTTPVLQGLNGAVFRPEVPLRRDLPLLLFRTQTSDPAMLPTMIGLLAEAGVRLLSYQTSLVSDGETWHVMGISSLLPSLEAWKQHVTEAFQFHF
Description: Binding affinity to 3-PGDH in human HEI-193 cells harboring NF2 mutant at 100 uM after 30 mins by SDS-PAGE analysis. Format: cell-based.

As for `COc1cc(/C=C/C(=O)CC(=O)/C=C/c2ccc(O)c(OC)c2)ccc1O` [CURCUMIN], in assay [1], the negative-log IC50 (pIC50) was 4.74. Further, the Activity in assay [2] turned out to be 34%.
In the case of `COc1cc(/C=C/C(=O)CC(=O)/C=C/c2ccc(OC(=O)CCCC(=O)NCCCOCCOCCOCCCNC(=O)CCCC[C@@H]3SC[C@@H]4NC(=O)N[C@@H]43)c(OC)c2)ccc1O`, the outcome (in the assay with HEI-193; in assay [3]; in assay [4]; in assay [5]) was Active. Besides, the pIC50 in assay [1] is 4.44.
